Test results published in US10973880B2, “Compositions and methods for treating pulmonary hypertension” (Acceleron Pharma Inc., priority 2016, dated 2021).

Tests used:
[1] = system: rat model of pulmonary arterial hypertension (PAH), monocrotaline (MCT) induced; test: monocrotaline rat model of pulmonary arterial hypertension; type: in vivo, Sprague Dawley rats
Experimental: The effects of an ActRIIA-mFc fusion protein (ActRIIA-mFc homodimer as described in Example 1), an ALK4-Fc-ActRIIB-Fc heterodimer (as described in Examples 12 and 13), and sildenafil (a phosphodiesterase-5 inhibitor approved for the treatment of PAH) were examined in a rat model of pulmonary arterial hypertension (PAH). In this model, Sprague Dawley rats received a […] injection of monocrotaline (MCT) to induce PAH 24 hours prior to start of therapy.
Rats were separated into different treatment groups (10 mice per group): 1) treatment with MCT (60 mg/kg administered i.p. as a single dose at day 1 of study) and Tris buffered saline (i.p. as 1 ml/kg, every three days) (vehicle treatment group), 2) treatment with an ActRIIA-mFc polypeptide (10 mg/kg administered i.p. every three days) and MCT (60 mg/kg administered i.p. as a single dose at day 1 of study), 3) treatment with an ALK4-Fc:ActRIIB-Fc heterodimer (10 mg/kg administered i.p. every three days) and MCT (60 mg/kg administered i.p. as a single dose at day 1 of study), 4) treatment with sildenafil (30 mg/kg administered orally twice daily) and MCT (60 mg/kg administered i.p. as a single dose at day 1 of study), and 5) control rats (Tris buffered saline administered i.p. as 1 ml/kg, every three days). Rats were treated for 28 days. Body weights were recorded prior to first dose on Day 1 and then weekly throughout the study.
On day 28, rats were anesthetized by an intraperitoneal injection of ketamine/xylazine (80/10 mg/kg). An incision was made in the neck, and a jugular vein was isolated and ligated anteriorly. A fluid-filled pressure catheter was introduced into the right jugular vein to measure pulmonary artery pressure (PAP). Another incision was made in the inguinal region, and femoral artery was isolated and ligated anteriorly. A Millar pressure catheter was introduced into a femoral artery to measure systolic arterial pressure, diastolic pressure, and heart rate. Mean arterial pressure and right PAP were monitored using the Notocord HEM (Croissy sur Seine, Frnace) v3.5 data capture system for approximately 5-10 minutes until stable measurements were obtained. During the measurements, rats were maintained at approximately 37° C. on a heating pad and body temperature was monitored throughout the procedure with a rectal temperature probe. At the conclusion of the procedure, rats were euthanized, and the hearts and lungs were removed. The entire heart was weighed. Next, the atria were removed and the left ventricle with septum (LV+S) was separated from the right ventricle (RV). The ventricles were weighed separately. Hypertrophy was assessed, in part, by calculating RV/LV+S. The lungs were also weighed.
Similar trends were observed on vessel muscularity based on histopathologic scoring. After staining tissue samples to detect αSMA/elastin, 100 pulmonary arterioles, between 10 μm and 50 μm in size, per animal were categorized as non-muscularized, partially muscularized, or completely muscularized. Pulmonary arterioles from vehicle treated rats were determined to be 62.3% completely muscularized, 36.4% partially muscularized, and 1.4% non-muscularized. […] Histopathological scoring of smooth muscle hypertrophy of pulmonary arterioles were also recorded as follows: 0 (normal), 1 (minimal), 2 (mild), 3 (moderate), or 4 (marked).

[2] = system: Sugen Hypoxia model of PAH (semaxanib/hypoxia); test: Sugen Hypoxia rat model of PAH; type: in vivo; settings: 0 normal, 1 minimal, 2 mild, 3 moderate, 4 marked
Experimental: The effects of an ActRIIA-mFc fusion protein (ActRIIA-mFc homodimer as described in Example 1 and sildenafil (a phosphodiesterase-5 inhibitor approved for the treatment of PAH) were further examined the Sugen Hypoxia model of PAH. In this model, rats receive daily doses of semaxanib and are placed in a low oxygen environment (approximately 13% oxygen) to induce PAH 24 hours prior to start of therapy.
Rats were separated into different treatment groups (10 mice per group): 1) treatment with semaxanib (200 mg/kg administered s.c. as a single dose daily)/hypoxia and Tris buffered saline (administered i.p. as 1 ml/kg, every three days) (vehicle treatment group), 2) treatment with an ActRIIA-mFc polypeptide (10 mg/kg administered i.p. every three days) and semaxanib (200 mg/kg administered s.c. as a single dose daily)/hypoxia, 3) treatment with sildenafil (30 mg/kg administered orally twice daily) and semaxanib (200 mg/kg administered s.c. as a single dose daily)/hypoxia, and 4) control rats (Tris buffered saline administered i.p. as 1 ml/kg, every three days). Rats were treated for 28 days. Body weights were recorded prior to first dose on Day 1 and then weekly throughout the study.
On day 28, rats were anesthetized by an intraperitoneal injection of ketamine/xylazine (80/10 mg/kg). […] Hypertrophy was assessed, in part, by calculating RV/LV+S. The lungs were also weighed. […]

ActRIIA-mFc: extracellular domain of human ActRIIa fused to a mouse Fc domain with a minimal linker; homodimer
smooth muscle hypertrophy of pulmonary arterioles, average histopathological score ([1]; 0 normal, 1 minimal, 2 mild, 3 moderate, 4 marked): 1.6 score
improvement in body weight ([1]; 28 days, compared to monocrotaline treated rats, proteins 10 mg/kg i.p. every three days, sildenafil 30 mg/kg orally twice daily): did not show improvement
smooth muscle hypertrophy of pulmonary arterioles, average histopathological score [2]: 1.4 score
